Source: publication PMC6270026, “Antibacterial and Herbicidal Activity of Ring-Substituted 2-Hydroxynaphthalene-1-carboxanilides” (Molecules, 2013)
≈ marks a conversion by molar mass, not a printed value.

Tests used:
[1] = Lipophilicity determination by RP-HPLC (capacity factor log k); format: physicochemical; conditions: isocratic, MeOH 60%/H2O 40%, C18
Procedure: A HPLC system Agilent 1200 equipped with DAD detector (Agilent, Santa Clara, CA, USA) was used. A chromatographic column Symmetry® C18 5 μm, 4.6 × 250 mm, Part No. WAT054275, (Waters Corp., Milford, MA, USA) was used. The HPLC separation process was monitored and evaluated by EZChrom Elite software ver. 3.3.2 (Agilent). Isocratic elution by a mixture of MeOH p.a. (60%) and H2O-HPLC Mili-Q grade (40%) as a mobile phase was used. The total flow of the column was 1.0 mL/min, injection 20 μL, column temperature 40 °C and sample temperature 10 °C. The detection wavelength 210 nm was chosen. The KI methanolic solution was used for the dead time (tD) determination. Retention times (tR) were measured in minutes. The capacity factors k were calculated according to formula k = (tR − tD)/tD, where tR is the retention time of the solute, whereas tD denotes the dead time obtained using an unretained analyte. Log k, calculated from the capacity factor k, is used as the lipophilicity index converted to log P scale.

[2] = system: photosynthetic electron transport (PET) in spinach chloroplasts; experiment: Inhibition of photosynthetic electron transport (PET) in spinach chloroplasts; format: biochemical, Spinacia oleracea L.; conditions: DCPIP photoreduction
Procedure: Chloroplasts were prepared from spinach (Spinacia oleracea L.) according to Masarovicova and Kralova. The inhibition of photosynthetic electron transport (PET) in spinach chloroplasts was determined spectrophotometrically (Genesys 6, Thermo Electron Scientific Instruments, Madison, WI, USA), using an artificial electron acceptor 2,6-dichlorophenol-indophenol (DCPIP) according to Kralova et al., and the rate of photosynthetic electron transport was monitored as a photoreduction of DCPIP. The measurements were carried out in phosphate buffer (0.02 mol/L, pH 7.2) containing sucrose (0.4 mol/L), MgCl2 (0.005 mol/L) and NaCl (0.015 mol/L). The chlorophyll content was 30 mg/L in these experiments and the samples were irradiated (~100 W/m^2 with 10 cm distance) with a halogen lamp (250 W) using a 4 cm water filter to prevent warming of the samples (suspension temperature 22 °C). The studied compounds were dissolved in DMSO due to their limited water solubility. […] The inhibitory efficiency of the studied compounds was expressed by IC50 values, i.e., by molar concentration of the compounds causing 50% decrease in the oxygen evolution rate relative to the untreated control.

[3] = system: Mycobacterium marinum CAMP 5644; experiment: In vitro antimycobacterial evaluation (broth dilution MIC); format: cell-based; conditions: Mycobacterium marinum, CAMP5644, 504 h, M. marinum CAMP 5644, 21 days, 28 °C
M. kansasii DSM 44162 = experiment: as above; format: cell-based; conditions: Mycobacterium kansasii, DSM44162, 168 h; M. kansasii DSM 44162, 7 days, 37 °C
M. smegmatis ATCC 700084 = experiment: as above; format: cell-based, Mycobacterium smegmatis; conditions: Mycolicibacterium smegmatis, ATCC700084, 72 h; M. smegmatis ATCC 700084, 3 days, 37 °C
[4] = system: Mycobacterium avium subsp. paratuberculosis (CIT03); experiment: In vitro antimycobacterial evaluation (alamarBlue MIC); format: cell-based; conditions: 264 h, M. avium paratuberculosis CIT03, 11 days, 37 °C
Procedure: A well characterised clinical isolate of Mycobacterium avium subsp. paratuberculosis (CIT03) was grown in Middlebrook broth (MB), supplemented with Oleic-Albumin-Dextrose-Catalase supplement (OADC, Becton, Dickinson & Comp., Franklin Lakes, NJ, USA) and mycobactin J (2 µg/mL). Identification of this isolate was performed using biochemical and molecular protocols. At log phase growth, a culture sample (10 mL) was centrifuged at 15,000 rpm/20 min using a bench top centrifuge (Model CR 4-12, Jouan Inc., Winchester, VA, USA). Following removal of the supernatant, the pellet was washed in fresh Middlebrook 7H9GC broth and re-suspended in fresh supplemented MB (10 mL). The turbidity was adjusted to match McFarland standard No. 1 (3 × 10^8 cfu) with MB broth. A further 1:20 dilution of the culture was then performed in MB broth. The antimicrobial susceptibility of the mycobacterial species was investigated in a 96-well plate format. In these experiments, sterile deionised water (300 µL) was added to all outer-perimeter wells of the plates to minimize evaporation of the medium in the test wells during incubation. Each evaluated compound (100 µL) was incubated with each of the mycobacterial species (100 µL). Dilutions of each compound were prepared in duplicate. For all synthesized compounds, final concentrations ranged from 1,000 µg/mL to 8 µg/mL. All compounds were prepared in DMSO and subsequent dilutions were made in supplemented MB. The plates were sealed with parafilm and incubated at 37 °C, for 11 days in the case of M. avium paratuberculosis. Following incubation, a 10% addition of alamarBlue (AbD Serotec, Kidlington, UK) was mixed into each well and readings at 570 nm and 600 nm were taken, initially for background subtraction and subsequently after 24 h re-incubation. The background subtraction is necessary for strongly coloured compounds, where the colour may interfere with the interpretation of any colour change. For non-interfering compounds, a blue colour in the well was interpreted as an absence of growth and a pink colour was scored as growth. The minimum inhibitory concentrations (MICs) were initially defined as the lowest concentration which prevented a visual colour change from blue to pink.
The MICs were defined as the lowest concentration of the compound at which no visible bacterial growth was observed. The MIC value is routinely and widely used in bacterial assays and is a standard detection limit according to the Clinical and Laboratory Standards Institute (CLSI). Isoniazid (Sigma-Aldrich) was used as reference antimycobacterial drug.

[5] = system: human monocytic leukemia THP-1 cells; experiment: In vitro cytotoxicity assay (LDH); format: cell-based; conditions: treatment with 20 µmol/L, 24 h
Procedure: Human monocytic leukemia THP-1 cells were obtained from the European Collection of Cell Cultures (ECACC, Salisbury, UK; Methods of characterization: DNA Fingerprinting (Multilocus probes) and isoenzyme analysis). These cells were routinely cultured in RPMI 1640 (Lonza, Verviers, Belgium) medium supplemented with 10% fetal bovine serum (FBS, Sigma-Aldrich), 2% L-glutamine, 1% penicillin and streptomycin (Lonza, Verviers, Belgium) at 37 °C with 5% CO2. Cells were passaged at approximately 1 week intervals. Cells were routinely tested for the absence of mycoplasma (Hoechst 33258 staining method). The tested compounds were dissolved in DMSO (Sigma-Aldrich) and added in five increasing concentrations to the cell suspension in the culture medium. The maximum concentration of DMSO in the assays never exceeded 0.1%. Subsequently, the cells were incubated for 24 h at 37 °C with 5% CO2 to various compound concentrations ranging from 0.37 to 20 μmol/L in RPMI 1640 medium. Cell toxicity was determined using a Cytotoxicity Detection Kit^PLUS Lactate dehydrogenase (LDH) assay kit (Roche Diagnostics, Mannheim, Germany) according to the manufacturer’s instructions, as described previously. […] All data were evaluated using GraphPad Prism 5.00 software (GraphPad Software, San Diego, CA, USA).

SMILES	log k [1]	IC50 [2] [µM]	MIC [3] [µM]	MIC (M. kansasii DSM 44162) [µM]	MIC (M. smegmatis ATCC 700084) [µM]	MIC [4] [µM]	lethal effect on THP-1 cells [5]
O=C(Nc1ccccc1Cl)c1c(O)ccc2ccccc12 [Compound 5a, N-(2-chlorophenyl)-2-hydroxynaphthalene-1-carboxamide]	0.8984	49.6	107 (≈ 31.9 µg/mL)	107 (≈ 31.9 µg/mL)	107 (≈ 31.9 µg/mL)	202 (≈ 60.1 µg/mL)	did not lead to significant lethal effects
O=C(Nc1ccccc1C(F)(F)F)c1c(O)ccc2ccccc12 [Compound 7a, 2-Hydroxy-N-(2-trifluoromethylphenyl)naphthalene-1-carboxamide]	0.8353	153	96.6 (≈ 32 µg/mL)	96.6 (≈ 32 µg/mL)	386 (≈ 128 µg/mL)	377 (≈ 125 µg/mL)	did not lead to significant lethal effects
O=C(Nc1cccc(C(F)(F)F)c1)c1c(O)ccc2ccccc12 [Compound 7b, 2-Hydroxy-N-(3-trifluoromethylphenyl)naphthalene-1-carboxamide]	0.9411	45.6	> 748	93.5 (≈ 31 µg/mL)	> 748	731 (≈ 242 µg/mL)	did not lead to significant lethal effects
